Data on four compounds can be found in ChEMBL document CHEMBL1201862, “PubChem BioAssay data set” (2004).

Assay [1] concerns Saccharomyces cerevisiae. Description: S. cerevisiae Caspase-1/ASC signal blockers IC50, NALP1 inhibitor project selectivity test (AID 488863). The assay is classed as functional, organism-based.
Assay [2] has as its target T1, Replicative DNA helicase DnaB (Mycobacterium tuberculosis, UniProt P9WMR3).
T1 sequence (P9WMR3 whole entry): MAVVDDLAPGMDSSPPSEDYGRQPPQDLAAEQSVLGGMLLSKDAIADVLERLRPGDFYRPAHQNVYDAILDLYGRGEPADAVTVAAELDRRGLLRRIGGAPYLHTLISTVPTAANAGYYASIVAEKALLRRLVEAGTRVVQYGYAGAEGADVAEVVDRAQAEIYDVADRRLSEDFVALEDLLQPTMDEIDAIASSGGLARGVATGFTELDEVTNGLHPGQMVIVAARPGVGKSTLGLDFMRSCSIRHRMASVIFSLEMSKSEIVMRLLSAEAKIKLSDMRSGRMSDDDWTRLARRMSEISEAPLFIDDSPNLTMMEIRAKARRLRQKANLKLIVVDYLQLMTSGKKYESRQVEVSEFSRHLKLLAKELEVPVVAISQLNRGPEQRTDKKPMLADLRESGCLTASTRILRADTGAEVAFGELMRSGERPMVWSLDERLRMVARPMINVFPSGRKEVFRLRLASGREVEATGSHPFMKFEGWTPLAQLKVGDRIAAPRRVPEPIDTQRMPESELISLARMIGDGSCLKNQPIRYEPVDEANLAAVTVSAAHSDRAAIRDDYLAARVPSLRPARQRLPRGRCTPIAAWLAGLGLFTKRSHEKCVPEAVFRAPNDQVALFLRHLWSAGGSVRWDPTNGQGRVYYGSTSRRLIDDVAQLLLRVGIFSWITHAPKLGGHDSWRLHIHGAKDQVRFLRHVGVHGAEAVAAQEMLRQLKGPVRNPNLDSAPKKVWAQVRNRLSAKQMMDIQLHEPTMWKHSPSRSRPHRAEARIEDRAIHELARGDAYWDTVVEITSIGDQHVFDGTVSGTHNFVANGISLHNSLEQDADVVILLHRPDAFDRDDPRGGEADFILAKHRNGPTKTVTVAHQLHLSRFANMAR
Nature of the assay: DnaB intein splicing inhibitors, dose response, biochemical, cell-free fluorescence (AID 449749). The assay is classed as functional.

In assay [3] the target is Keap1/Nrf2 (Homo sapiens, UniProt Q14145). Description: disruptors of Keap1 binding to Nrf2 peptide – biochemical, fluorescence polarization, cherry-picked samples, dose response (AID 588683). (In general: Polarisation of emitted light reports the rotation of a fluorescent probe.)
Assay [4] deals with T2, RNA-binding protein pos-1 (Caenorhabditis elegans, UniProt G5EF15).
T2 sequence (G5EF15 whole entry): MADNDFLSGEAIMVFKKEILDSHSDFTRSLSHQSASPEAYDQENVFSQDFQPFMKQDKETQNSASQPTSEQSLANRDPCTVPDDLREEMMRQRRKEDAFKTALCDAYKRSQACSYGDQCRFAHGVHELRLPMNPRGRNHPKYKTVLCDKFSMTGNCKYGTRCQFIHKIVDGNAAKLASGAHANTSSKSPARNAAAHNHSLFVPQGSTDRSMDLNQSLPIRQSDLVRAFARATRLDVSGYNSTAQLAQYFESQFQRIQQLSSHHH
Nature of the assay: disruptors of C. elegans POS-1 RNA interaction – biochemical, fluorescence polarization, dose response (AID 1964).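 Also: purified POS-1 fused to maltose binding protein made in E. coli; potency of compounds blocking POS-1 binding to fluorescent RNA.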

Assay [5] concerns the target Troponin, cardiac muscle (Homo sapiens, UniProt P19429+P45379+P63316). Description: Fluorescence-based biochemical high throughput dose response assay for activators of the calcium sensitivity of cardiac Regulated Thin Filaments (RTF). [Related pubchem assays (depositor defined):AID493008, AID493018, AID504382, AID504383]. The assay is classed as protein-complex assay.

For assay [6], the target named is Tyrosine-protein kinase ABL1 (Homo sapiens, UniProt P00519). Format: functional.
Assay [7] deals with Aurora kinase B (Homo sapiens, UniProt Q96GD4). The assay is classed as functional.
In assay [8] the target is Serine/threonine-protein kinase Chk1 (Homo sapiens, UniProt O14757). The assay is classed as functional.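 Also: measured as one member of a kinome-wide kinase profiling panel.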
Assay [9] deals with Dual specificity protein kinase CLK2 (Homo sapiens, UniProt P49760). The assay is classed as functional.
Assay [10] concerns the target Dual specificity tyrosine-phosphorylation-regulated kinase 1B (Homo sapiens, UniProt Q9Y463). Nature of the assay: Navigating the Kinome. Panel member name: DYRK1B. The assay is classed as functional.
In assay [11] the target is Tyrosine-protein kinase Lck (Homo sapiens, UniProt P06239). The assay is classed as functional.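 Also: lck was assayed as one member of a kinase panel.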
The target in assay [12] is Platelet-derived growth factor receptor beta (Homo sapiens, UniProt P09619). Format: functional.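 Also: value comes from a kinome panel, with PDGFRB tested as one panel member.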
Assay [13] has as its target LIM domain kinase 1 (Homo sapiens, UniProt P53667). Description: Navigating the Kinome. Panel member name: LIMK1. The assay is classed as functional.
Assay [14] concerns the target T3, Serine/threonine-protein kinase Nek2 (Homo sapiens, UniProt P51955).
T3 sequence (P51955 whole entry): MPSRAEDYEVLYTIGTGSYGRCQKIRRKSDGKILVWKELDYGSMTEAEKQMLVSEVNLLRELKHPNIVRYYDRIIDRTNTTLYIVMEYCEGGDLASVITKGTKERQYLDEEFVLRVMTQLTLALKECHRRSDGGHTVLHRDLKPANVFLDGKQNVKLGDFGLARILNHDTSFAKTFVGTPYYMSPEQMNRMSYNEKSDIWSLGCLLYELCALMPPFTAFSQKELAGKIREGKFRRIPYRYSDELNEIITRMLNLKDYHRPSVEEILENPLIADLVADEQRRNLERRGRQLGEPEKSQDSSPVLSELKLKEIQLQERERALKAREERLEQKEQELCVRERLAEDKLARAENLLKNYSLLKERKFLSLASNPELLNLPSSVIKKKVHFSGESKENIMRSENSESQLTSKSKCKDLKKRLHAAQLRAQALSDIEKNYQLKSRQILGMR
Format: functional.

Assay [15] deals with Mitogen-activated protein kinase 9 (Homo sapiens, UniProt P45984). Format: functional.
Assay [16] has as its target Tyrosine-protein kinase BTK (Homo sapiens, UniProt Q06187). Format: functional.
Assay [17] addresses Mitogen-activated protein kinase 14 (Homo sapiens, UniProt Q16539). Format: functional.
The target of assay [18] is Vascular endothelial growth factor receptor 1 (Homo sapiens, UniProt P17948). Format: functional.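 Also: measured within a kinome-wide profiling panel, FLT1 as the panel member.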
Assay [19] addresses Serine/threonine-protein kinase 3 (Homo sapiens, UniProt Q13188). Format: functional.
Assay [20] deals with Misshapen-like kinase 1 (Homo sapiens, UniProt Q8N4C8). Format: functional.
Assay [21] addresses Maternal embryonic leucine zipper kinase (Homo sapiens, UniProt Q14680). The assay is classed as functional.
Assay [22] deals with Casein kinase I isoform alpha (Homo sapiens, UniProt P48729). The assay is classed as functional.
Assay [23] addresses Mitogen-activated protein kinase 10 (Homo sapiens, UniProt P53779). Description: Navigating the Kinome. Panel member name: MAPK10. Format: functional.

Calls of active or inactive are those of the source.

The IC50 is the concentration that gives 50% inhibition. As a reminder, the AC50 is the midpoint of the concentration-response curve, whichever way the signal moves. As a reminder, the EC50 is the concentration giving half of the maximal effect. Take `c1ccc2nc3cc4[nH]cnc4cc3nc2c1`: the IC50 in assay [1] is 32.7 µM (active). Further, the AC50 in assay [2] was 19.5 µM (active); in assay [3], 10.4 µM (active). Further, the EC50 in assay [4] is 7.59 µM (inconclusive); in assay [5], 5.37 µM (active).

For orientation: Ki means a measure of affinity in units of concentration, obtained from inhibition or displacement. Consider `COc1cccc(C(C)NC(=O)c2sc(-c3ccncc3)nc2C)c1` (stereo not drawn), for which the Ki in assay [6] was > 2.51 µM (inactive); in assay [7], > 3.98 µM (inactive); in assay [8] it was > 3.16 µM (inactive); in assay [9], > 3.98 µM (inactive); in [10] it was > 2.51 µM (inactive); in assay [11], > 6.31 µM (inactive). Also, the Ki was > 2 µM (inactive) in assay [12]; > 3.16 µM (inactive) in [13]; > 3.16 µM (inactive) in assay [14]; > 3.98 µM (inactive) in assay [15]; > 6.31 µM (inactive) in [16]; > 3.98 µM (inactive) in assay [17]. Also, the Ki in assay [18] was > 3.98 µM (inactive).

On to `CCCCC(=O)Nc1cc(-c2c[nH]c3ncccc23)cc(Cl)n1`, for which the Ki is > 3.16 µM (inactive) in [19]; > 2.51 µM (inactive) in [20]; 1.58 µM (active) in assay [9]; > 2 µM (inactive) in [21]; 0.0398 µM (active) in [10]; 0.794 µM (active) in assay [22]. The Ki in assay [15] was > 3.98 µM (inactive); in assay [16], > 6.31 µM (inactive); in assay [17], > 3.98 µM (inactive); in [18], > 3.98 µM (inactive).

`Oc1ccc(-c2nc(-c3ccncc3)c(-c3ccc(F)cc3)[nH]2)cc1` [SB-202190]: the Ki was > 2.51 µM (inactive) in assay [6]; > 2.51 µM (inactive) in assay [19]; > 3.98 µM (inactive) in [7]; > 3.16 µM (inactive) in [8]; > 3.98 µM (inactive) in [9]; > 2 µM (inactive) in assay [21]. In addition, the Ki in assay [10] is > 2.51 µM (inactive); in [11], > 5.01 µM (inactive); in assay [12] it was > 2 µM (inactive); in [22], 1 µM (active); in assay [13], > 3.16 µM (inactive); in assay [14], > 3.16 µM (inactive). For the same compound, the Ki in [16] is > 6.31 µM (inactive); in assay [23], 0.0631 µM (active); in assay [18], > 3.98 µM (inactive).
